These results are taken from patent US5843481A, “Treatment of proliferative disorders, metastasaes, and drug resistant tumors with vanadate compounds and derivatives or analogues thereof” (priority 1994, dated 1998).

In one series the test system is jun. The series is described as follows: Northern blot analysis of jun mRNA expression in chondrocytes. The format is cell-based, bovine. The text has this:
The cytokine interleukin 1 (IL 1) has been used to identify the intermediate second messengers which regulate the expression of fos and jun.
Although IL 1 stimulated superoxide production, it was not known whether IL 1 induced fos and jun expression was dependent on the production of superoxides. In order to elucidate this possibility, the effect of DPI on fos and jun mRNA levels induced by IL 1 was investigated. RNA from chondrocytes treated with IL 1 in the presence and absence of DPI were analyzed by Northern blot analysis using either fos or collagenase cDNA probes. […] Similar data has been obtained for IL 1 induced jun expression. Furthermore, inhibition of fos and jun expression by DPI was sufficient to suppress IL 1 induced and constitutive collagenase expression.
(§1) Bovine articular chondrocytes were isolated and plated as previously described (Kandel R. A. et al. Biochim. Biophys. Acta. 1053, 130-134, 1990). In order to determine the effect of orthovanadate on IL 1 and PMA (phorbol ester) induced responses, chondrocytes were incubated with orthovanadate (100 μM) for 2 hours before stimulation with IL 1 (10 ng/ml) or PMA ([…]). collagenase production was determined by incubating chondrocytes for 24 hours with IL 1 or PMA and the cell conditioned medium was assayed for collagenase activity using an ELISA procedure as described previously (Kandel et al. supra) PLA2 activity was measured by incorporating ^3 H-arachidonic acid (^3 H-AA) into the cells and then incubating the cells with medium containing 1 mg/ml BSA, either alone or in the presence of IL 1 or PMA, for 10 min. as previously described (Conquer, J. A. […], Biochim. Biophys. Acta. 1134, 1-6). The amount of ^3 H-AA liberated into the supernatant was determined. To measure PGE2 production, chondrocytes were incubated for 6 hours in Ham's F12 medium, either alone or with IL 1 or PMA. The supernatant was analyzed by RIA using an antibody specific for PGE2 (Dr. S. A. Jones, Mount Sinai Hospital, Toronto, Can.). In order to examine the expression of c-fos and c-jun, chondrocytes were incubated for 1 hour in the presence of IL-1, PMA or AA (3 μM). Chondrocytes were washed in PBS and the total RNA extracted as previously described (Cruz. et al, 1991, Biochem. J. 277, 327-330). RNA samples were run on formaldehyde agarose gels and transferred to nylon membrane for northern analysis using cDNA probes for c-fos and c-jun.

Series [1] has as its system KB8, KB8-5 and KB85-11 cells. The series is described as follows: Viability of drug resistant ovarian cancer cell lines. The format is cell-based. The text has this: The effect of orthovanadate on three ovarian cancer cell lines, KB8, KB8-5 and KB85-11, which have increasing drug resistance, respectively, relative to the parent cell line, KB3-1 was compared. These drug resistant cell lines are not killed by several classes of chemotherapeutic agents such as colchicine, vinblastine and doxorubicin. […] The cells were harvested and the number of viable cells determined.

Series [2] concerns MDAY-D2. The series is described as follows: MDAY-D2 tumor growth in mice, three vanadyl compounds, Example 6B. It is filed as in vivo. The text has this: (§2) In order to examine the ability of vanadyl compounds to reduce tumor formation, growth and metastases, a specific animal model which allows investigation of all of these processes in the same animal was chosen. This model involves the injection of a metastatic haematopoietic cell line, MDAY-D2, into mice subcutaneously. These cells form a tumor at the site of injection and its size can be easily determined. In addition, these cells metastasize to the liver and metastases can be detected histologically after day 17 to 19. This model provides a very sensitive and reproducible approach to investigate the effect of vanadyl compounds on tumor growth and metastases.
In a separate experiment using the same animal model, the effect of orthovanadate, vanadyl sulphate and vanadyl hydroperoxide administration on tumor growth in vivo was examined. On Day 1, 20 mice were injected with 2×10^5 MDAY-D2 cell subcutaneously. The mice were divided into four groups of five mice. At day 5, the animals were injected subcutaneously with 50 μl of water alone or containing 10 mg/ml of orthovanadate, 10 mg/ml of vanadyl sulphate, or 10 mg/ml of vanadyl hydroperoxide. This treatment was continued daily for 16 days. At day 21, the mice were sacrificed and the tumors dissected and weighed.

Series [3] has as its system MDAY-D2. Nature of the series: Liver metastases of MDAY-D2 cells in mice (histology), Example 8. The format is in vivo.
From the text: as §2
Livers were removed from animals treated as described above and prepared for histological examination. FIG. 16 compares liver sections from untreated (C), orthovanadate (VO)(500 μg/day) and vanadyl sulphate (VS)(500 μg/day) treated animals. Nodules are identified with an arrow.

The subject of another series is MDAY-D2 cells. The series is described as follows: Viability of MDAY-D2 cells with different vanadyl compounds. It is filed as cell-based, mouse. To be noted: 0-50 μM, 48 hours; FIG. 8. As for the experimental part: Three different forms of vanadyl compounds were examined for their effect on viability of cancer cell lines. MDAY-D2 cells were incubated in media containing 0-50 μM orthovanadate, vanadyl sulphate, or vanadyl hydroperoxide for 48 hours. The cells were harvested and the number of viable cells determined. […] Although there were slight differences in sensitivity, the overall cell death was similar.

A further series concerns PGE2. The series is described as follows: PGE2 production by chondrocytes (RIA). To be noted: orthovanadate 100 uM. The format is cell-based, bovine. Here is the method:
as §1, with “Chondrocytes were washed in PBS and the total RNA extracted as previously described (Cruz. et al, 1991, Biochem. J. 277, 327-330). RNA samples were run on formaldehyde agarose gels and transferred to nylon membrane for northern analysis using cDNA probes for c-fos and c-jun.” left out

Series [4] in a line: Dose required to reach serum concentration highly toxic to cancer cells. On the set-up: species or system animals. The conditions noted are these: in vivo.
Series [5] deals with MDAY-D2. Nature of the series: MDAY-D2 tumor growth in mice, Example 6A. It is filed as in vivo.
From the text: as §2
Using the animal model described above, the effect of subcutaneous administration of orthovanadate on tumor growth was investigated. A total of 15 mice were injected subcutaneously with 1×10^5 MDAY-D2 cells on Day 1. On Day 5, small tumors could be observed at the site of injection. Five mice were injected daily with 50 μl of water alone and 10 mice were injected daily with water containing 10 mg/ml orthovanadate. On day 14, the mice were sacrificed. The tumors were removed from all the animals, photographed, and weighed. FIG. 11 compares sizes of tumors from two untreated and two orthovanadate treated mice. […] In animals treated with water alone, four mice had tumors weighing between 1.18 and 1.68 gms.

The subject of series [6] is non-proliferating chondrocytes. The series is described as follows: Viability of non-proliferating chondrocytes (high cell density). The conditions noted are these: 0-50 μM, 48 hours; FIG. 6. The format is cell-based, bovine. As for the experimental part:
As described in example 1, orthovanadate inhibited fos, jun and collagenase expression. If fos and jun expression are required for cellular proliferation, then orthovanadate should inhibit chondrocyte proliferation. In order to compare the effect of orthovanadate on non-proliferating and proliferating chondrocytes, chondrocytes were plated at both high cell density (2×10^6 to 4×10^6 cells/per well on a six well plate) (nonproliferating) and at a lower cell density (5×10^5 to 1×10^6 cells/per well on a six well plate) (proliferating) and then maintained for 48 hours. The cells were then incubated in media (HAMS F12) containing 0-50 μM Orthovanadate for an additional 48 hours. The cells were harvested and the number of viable cells determined.

Consider `[O]=[V]([O-])([O-])[O-]` [orthovanadate], for which, in the series on jun (orthovanadate 100 μM, FIGS. 4 and 18), the “IL 1, PMA and AA induced c-jun expression” value is “completely inhibited”. For the same molecule, the “jun expression in response to factors such as IL 1 or arachidonic acid” value in the series with jun (summary statement) is “completely inhibit”. The “effectiveness in killing drug resistant cell lines” value in series [1] (0-50 μM, 48 hours, FIG. 10) is given as “equally effective”. In addition, the “cell death by three days of administration” value in series [1] (three days) is on record as “most of the cells had died”. For the same molecule, the “effect on tumor growth, in words” value in the series on MDAY-D2 [2] (10 mg/ml s.c. daily) is listed as “most efficacy in reducing tumor growth”. Moreover, the “mice without detectable tumors” value in the series on MDAY-D2 [2] (10 mg/ml s.c., day 21) was “one mouse did not have detectable tumors”; in the series with MDAY-D2 [5] (10 mg/ml, 50 μl s.c. daily, day 14, of 10 mice, FIG. 12), 2 mice. The animals that died entry in the series on MDAY-D2 [2] (10 mg/ml, 50 μl s.c. daily for 16 days, groups of five mice) is given as “One animal died”. Also, the “levels of metastases in liver” value in the series with MDAY-D2 [3] (500 μg/day, FIG. 16) was “did not have detectable levels of metastases”. Further, in the series on MDAY-D2 [3] (preliminary results, liver histology), the “effectiveness at preventing metastases” value is reported as “effective at preventing metastases”. Besides, the “effectiveness in killing MDAY-D2 cells” value in the series on MDAY-D2 cells is on record as “equally effective”. The “production of PGE2 (IL 1 or PMA)” value with PGE2 is given as “did not inhibit”. In series [4], the “dose required to reach serum concentrations highly toxic to cancer cells” value is reported as “at least 0.2 mg/kg”. Also, the “tumor size (five mice)” value with MDAY-D2 [5] (10 mg/ml s.c. daily, day 14, five of 10 mice) is listed as “less than 0.16 gms”. In addition, in the series on MDAY-D2 [5] (FIG. 11), the “tumor size of treated mice versus untreated” value is recorded as “either undetectable or considerably smaller”. Moreover, in [6], the “toxicity to chondrocytes plated at high cell density (non-proliferating)” value is “did not effect”.
